Measurements from patent publication US20230313311A1, “METHOD OF ASSESSING THE CIRCADIAN RHYTHM OF A SUBJECT HAVING CANCER AND/OR ASSESSING A TIMING OF ADMINISTRATION OF A MEDICAMENT TO SAID SUBJECT HAVING CANCER” (priority 2020, published 2023).

What was measured:
[1] = system: BMAL1-Promoter activity in HCT116, SW480 and SW620 colon cancer cells; test: BMAL1-Promoter activity, live-cell bioluminescence recording over five days; format: cell-based, human; settings: treated vs control, n=3
Description: Here, the three cell lines were treated with several anti-cancer drugs, including WZB117, Oxaliplatin and cisplatin, and the rhythmic promoter activity of BMAL1 was measured over several days (FIG. 13). […] More specifically, HCT116, SW480 and SW620 colon cancer cells were treated with Oxaliplatin, Cisplatin and WZB117. BMAL1-Promoter activity was measured using live-cell bioluminescence recording over five days. Shown is one representative plot for the control (black) and the treated (grey dashed) condition, n=3.
BMAL1-Promoter activity was measured using live-cell bioluminescence recording over five days. Shown is one representative plot for the control (black) and the treated (grey) condition, n=3.

[2] = system: SW480 colorectal cancer cells; settings: cited from earlier work; for effect of drug administration depending on time: control cells; for effect of drug administration depending on time after BMAL1 downregulation: core-clock gene BMAL1 downregulated
mice = settings: among six mouse categories; treatment tolerability as output; cited from earlier work
[3] = system: core-clock downregulated (shBMAL1, shNR1D1 and shPER2) HCT116 cancer cell lines; test: Cell proliferation measured using confluence after time-dependent treatment; format: cell-based, human; settings: 10 μM; treated at 18 h, 21 h and 24 h after cell synchronization; confluence over five days; n=3
Description: FIG. 15 illustrates how cell proliferation for an exemplified for a human cancer cell type is affected by Cisplatin treatment in a time-dependent manner;
In addition to the BMAL1 rhythmicity data, preliminary data were obtained pointing towards the differential regulation of cancer cell proliferation based on the timing of drug administration. […] Cell proliferation was measured using confluence over five days. n=3.

Panc1 cells = settings: cited from earlier work
AsPC1 cells = settings: SMAD4 deficient AsPC1; treated 17 h, 20 h, 23 h after synchronization; cited from earlier work

## O=C(Oc1cccc(F)c1OC(=O)c1cccc(O)c1)c1cccc(O)c1 [WZB117]
[1]
  effect of drug application on rhythmicity of BMAL1 promoter activity: altered the rhythmicity of the core-clock gene BMAL1
[2]
  effect of drug administration depending on time: time-dependent
  effect of drug administration depending on time after BMAL1 downregulation: this effect is lost

## O=C1[O][Pt]2([NH][C@@H]3CCCC[C@H]3[NH]2)[O]C1=O [Oxaliplatin]
[1]
  effect of drug application on rhythmicity of BMAL1 promoter activity: altered the rhythmicity of the core-clock gene BMAL1
[2]
  effect of drug administration depending on time: time-dependent
  effect of drug administration depending on time after BMAL1 downregulation: this effect is lost

## CCc1c2c(nc3ccc(OC(=O)N4CCC(N5CCCCC5)CC4)cc13)-c1cc3c(c(=O)n1C2)COC(=O)[C@]3(O)CC [Irinotecan]
[1]
  effect of drug application on rhythmicity of BMAL1 promoter activity: alters BMAL1 rhythmic promoter activity
mice
  variation of optimal circadian timing along the 24 hours: up to 8 hour

## N.N.[Cl][Pt][Cl] [Cisplatin]
[3]
  cell proliferation depending on timing of drug administration: reduced cell proliferation for shNR1D1 and shPER2 cells, when cells were treated at 24 h after synchronization compared to the other time-points
[1]
  effect of drug application on rhythmicity of BMAL1 promoter activity: altered the rhythmicity of the core-clock gene BMAL1

## Nc1ccn([C@@H]2O[C@H](CO)[C@@H](O)C2(F)F)c(=O)n1 [gemcitabine]
Panc1 cells; Panc1 with downregulation of NR1D1 or SMAD4
  differential drug response to different treatment time points after gene downregulation: the differential drug response to different treatment time points is impaired
Panc1 cells; SMAD4 proficient Panc1, treated 17 h, 20 h, 23 h after synchronization
  response to time-dependent treatment: more resistant to treatment
AsPC1 cells
  response to time-dependent treatment: this effect is not observed
